PubChem BioAssay (NCI)
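These data come from cells grown in 96-well plates and exposed to compound for 48 hours at five concentrations. At the GI50, growth is halved. The concentration for full growth arrest is given as TGI.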

Legend:
Assay in all cases: DTP human tumour cell line panel, 48 h
SF-268 CNS = test system: SF-268 CNS
SW-620 colon = test system: SW-620 colon
KM12 colon = test system: KM12 colon
MCF7 breast = test system: MCF7 breast
CCRF-CEM leukemia = test system: CCRF-CEM leukemia
COLO 205 colon = test system: COLO 205 colon
MDA-MB-231 breast = test system: MDA-MB-231 breast
A549 NSCLC = test system: A549 NSCLC
MDA-N = test system: MDA-N
HS 578T breast = test system: HS 578T breast

Structure (SMILES) | TGI (SF-268 CNS) [µM] | TGI (SW-620 colon) [µM] | TGI (KM12 colon) [µM] | TGI (MCF7 breast) [µM] | TGI (CCRF-CEM leukemia) [µM] | TGI (COLO 205 colon) [µM] | TGI (MDA-MB-231 breast) [µM] | TGI (A549 NSCLC) [µM] | TGI (MDA-N) [µM] | GI50 (SF-268 CNS) [µM] | GI50 (HS 578T breast) [µM] | TGI (HS 578T breast) [µM] | GI50 (SW-620 colon) [µM] | GI50 (KM12 colon) [µM] | GI50 (MCF7 breast) [µM] | GI50 (CCRF-CEM leukemia) [µM] | GI50 (COLO 205 colon) [µM] | GI50 (MDA-MB-231 breast) [µM] | GI50 (A549 NSCLC) [µM]
COc1ccc(-c2nc(-c3cnccn3)n(C3OC(CO)C(O)C(O)C3O)n2)cc1 (configuration not stated) | > 100 | > 100 | > 100 | > 100 | > 100 | > 100 | > 100 | > 100 | > 100 |  |  |  |  |  |  |  |  |  | 
CC(=O)NC1=C(NCC(C)C)C(=O)c2ccccc2C1=O | 46.3 | 33.1 | > 100 |  | 28.4 | > 100 |  | > 100 |  |  |  |  |  |  |  |  |  |  | 
COc1cccc(CN(C(=O)/C=C\Sc2ccccc2)C(C)(C)C)c1 |  | > 100 | > 100 | > 100 | > 100 | > 100 | > 100 | > 100 | > 100 |  |  |  |  |  |  |  |  |  | 
O=C(CSc1nc2ccc(I)cc2c(=O)n1Cc1ccccc1)NN1C(=O)CCC1=O | > 100 | > 100 | > 100 | > 100 | > 100 | > 100 | > 100 | > 100 | > 100 |  |  |  |  |  |  |  |  |  | 
COc1cc(-n2cc(-c3cc(O)c(C/C=C(\C)CCC=C(C)C)c(O)c3)nn2)cc2c1O[C@]1(C)CC[C@@H](O)C(C)(C)[C@H]1C2 | 30.4 | 10.7 | 31.9 | 19.2 | > 43.3 | 22.2 | 3.24 | 20.7 |  | 2.03 | 0.0452 | 3.41 | 0.726 | 2.47 | 0.338 | 0.194 | 3.76 | 0.275 | 1.12
CC(=O)Nc1ccc(C(=O)N2N=C(C)/C(=C/c3ccc(O)cc3)C2=O)cc1 | > 100 | > 100 | > 100 |  | > 100 | > 100 |  | > 100 |  |  |  |  |  |  |  |  |  |  | 
C/C(=C\Cc1cc(O)ccc1O)CCc1c(C)cc(O)c(C=O)c1C | 46 | > 100 | > 100 |  | 30.5 | 33.4 |  | > 100 |  |  |  |  |  |  |  | 4.46 |  |  | 
O=CNNC(=O)Nc1ccc(Cl)cc1 | > 100 | > 100 | > 100 | > 100 | > 100 | > 100 | > 100 | > 100 |  |  |  | > 100 |  |  |  |  |  |  | 
O=c1c2c(nc3n1CCC3)sc1c(O)c(Br)ccc12 | > 100 | 29.9 | 29.7 |  | 45.1 | 24.4 |  | 29.9 |  |  |  |  |  |  |  |  |  |  | 
COc1ccc(/C=C2\CCC(CNc3ccc(Br)cc3)C2=O)cc1 (configuration not stated) | > 100 | > 100 | > 100 | > 100 | > 100 | > 100 | > 100 | > 100 |  |  |  |  |  |  |  |  |  |  | 
Cc1cc(=O)[nH]c(NNC(C#N)c2ccc([N+](=O)[O-])cc2)n1 (configuration not stated) | > 100 | > 100 | > 100 |  | > 100 | > 100 |  | > 100 |  |  |  |  |  |  |  |  |  |  | 
Nc1ncc(/C=N/O)c(NCC2(CO)CC(CCc3ccccc3)C2)n1 (configuration not stated) | > 100 |  | 31.6 | 22.2 | 50.2 | 27.2 | 21.8 | 25.6 |  |  |  | > 100 |  |  |  |  |  |  | 
Cc1c2cccc-2ccc2c1[nH]c1ccccc12 | 4 | 7.68 | 5.57 | 12.9 | > 26.1 | 3.68 | 3.48 | 5.65 | 4.15 |  |  |  |  |  |  |  |  |  | 
CC1(C)CCC2(C(=O)OC3OC(CO)C(O)C(O)C3O)CCC3(CO)C(=CCC4C5(C)CC(O)C(O)C(C)(C(=O)OC6OC(CO)C(O)C(O)C6O)C5CCC43C)C2C1 (configuration not stated) | > 100 | > 100 | > 100 | > 100 |  | > 100 | > 100 | > 100 | > 100 |  |  | > 100 |  |  |  |  |  |  | 
CC(C)(C)c1ccc(-c2nnc(-c3cc(C#N)cc(-c4nnc(-c5ccc(C(C)(C)C)cc5)o4)c3)o2)cc1 | > 100 | > 100 | > 100 |  | > 100 | > 100 | > 100 | > 100 | > 100 |  |  | > 100 |  |  |  |  |  |  | 
Cc1cc2n([O-])cccc-2[n+](=O)c1 | > 100 | > 100 | > 100 |  | > 100 | > 100 |  | > 100 |  |  |  |  |  |  |  |  |  |  | 
O=[N+]([O-])/C=C/c1cn(CCCCCn2cc(/C=C/[N+](=O)[O-])c3ccccc32)c2ccccc12 | 15.6 | 2.57 | 3.94 | 1.62 |  | > 46.1 | 4.28 | 11.7 | 6.67 |  |  | 7.99 |  |  |  |  |  |  | 
O=C(OCc1ccccc1C1CSCSC1)c1cc(C(=O)OCc2ccccc2C2CSCSC2)c(C(=O)OCc2ccccc2C2CSCSC2)cc1C(=O)OCc1ccccc1C1CSCSC1 | > 100 | > 100 | > 100 |  | > 100 | > 100 |  | > 100 |  |  |  |  |  |  |  |  |  |  | 
CCCCCCOc1ccc(C(=N)N(CCCC)CCCC)c2ccccc12 | 3.53 | 3 | 3.09 |  |  |  |  | 3.31 |  | 1.62 | 1.61 | 3.76 | 1.52 | 1.61 |  |  |  |  | 1.76
COC(=O)CC(NC(=O)OCc1ccccc1)C(C(=O)OCc1ccccc1)C1(C)OCCO1 (configuration not stated) | > 100 | > 100 |  |  | > 100 | 36.5 |  | > 100 |  |  |  |  |  |  |  |  |  |  | 
CC1(C)COC(c2c(-c3ccccc3)noc2CS(=O)c2ccccc2)=N1 (configuration not stated) | > 100 | > 100 | > 100 |  | > 100 | > 100 |  | > 100 |  |  |  |  |  |  |  |  |  |  | 
Cc1ccc(S(=O)(=O)N/N=C2\C3CC4CC(C3)C2C4)cc1 (configuration not stated) |  | > 100 | > 100 | > 100 | > 100 | > 100 | > 100 | > 100 | > 100 |  |  | > 100 |  |  |  |  |  |  | 
O=C(/C=C/c1ccco1)c1cccc(C(=O)/C=C/c2ccco2)n1 | > 38.9 | 10.4 | > 55.8 | > 100 |  | > 67.4 | > 100 | > 100 | > 100 |  |  | > 28.4 |  |  |  |  |  |  | 
